Some test systems named below: KM12 colon; MCF7 breast; SK-MEL-2 melanoma; DU-145 prostate; SF-539 CNS; NCI-H522 lung; SF-268 CNS; SNB-19 CNS; HCT-116 colon; MALME-3M melanoma; HS 578T breast; SR leukemia; BT-549 breast; OVCAR-4 ovarian.
What all share (assay): NCI anticancer screen, dose series, 48 h

TGI data for ten compounds are collected here from PubChem BioAssay (NCI).

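Each compound was tested at five concentrations against cells in 96-well plates for 48 hours. TGI marks complete inhibition of growth.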 A value given as a limit tells only on which side of the number the result lay.

On to `Cc1ncc([N+](=O)[O-])n1CCNC(=O)Cn1c([N+](=O)[O-])cnc1C`, for which the TGI in the assay on KM12 colon, in the assay on MCF7 breast, in the assay on SK-MEL-2 melanoma, with DU-145 prostate, in the assay with SF-539 CNS and in the assay on NCI-H522 lung was over 100 µM each time. In addition, the TGI in the assay on SF-268 CNS, in the assay with SNB-19 CNS, in the assay with HCT-116 colon, in the assay on MALME-3M melanoma, in the assay on HS 578T breast and with SR leukemia was over 100 µM throughout. In the assay with BT-549 breast, the TGI was over 100 µM.
Consider `CC(=O)c1cc(C)n2c1CS[C@@H]2c1ccccc1`, for which the TGI was over 100 µM in the assay on KM12 colon; over 100 µM with MCF7 breast; over 100 µM with SK-MEL-2 melanoma; 93.6 µM in the assay with DU-145 prostate; over 100 µM in the assay with NCI-H522 lung; over 100 µM in the assay on OVCAR-4 ovarian. In addition, the TGI in the assay on SF-268 CNS, with SNB-19 CNS, in the assay on HCT-116 colon, in the assay with MALME-3M melanoma, with HS 578T breast and in the assay with SR leukemia was over 100 µM throughout. In the assay on BT-549 breast, this compound yielded a TGI of over 100 µM.
Take `NC(=O)c1cccc([C@@H]2O[C@H](CO)[C@@H](O)[C@H]2O)c1`: the TGI is 15.9 µM with KM12 colon; over 100 µM with MCF7 breast; over 100 µM with SK-MEL-2 melanoma; over 50.6 µM in the assay with DU-145 prostate; 6.28 µM with SF-539 CNS; 10.2 µM with NCI-H522 lung. In addition, the TGI in the assay on OVCAR-4 ovarian is 19.7 µM; in the assay on SF-268 CNS it was 26.6 µM; in the assay on SNB-19 CNS, 34.3 µM; in the assay with HCT-116 colon, 34.6 µM; in the assay with MALME-3M melanoma, over 100 µM; in the assay with HS 578T breast, 74.5 µM. Further, the figures for the TGI in the assay with SR leukemia and with BT-549 breast were over 82.2 µM and 43.4 µM, respectively.
For `CC1=NN=C(N)NC1=CC(Sc1ccc(Cl)cc1)c1c(O)ccc2ccccc12` (stereo unspecified), the TGI in the assay with KM12 colon was 36.9 µM; in the assay with MCF7 breast, 73.9 µM; in the assay with SK-MEL-2 melanoma it was 23.2 µM; in the assay on DU-145 prostate, over 84.6 µM; in the assay on NCI-H522 lung, 41.8 µM; in the assay on OVCAR-4 ovarian, over 64.7 µM. For the same compound, the TGI was over 71.1 µM with SF-268 CNS; over 74.9 µM with SNB-19 CNS; over 63.2 µM in the assay on HCT-116 colon; 20.4 µM in the assay with MALME-3M melanoma; 41.3 µM in the assay on HS 578T breast; over 100 µM in the assay on SR leukemia. The compound also had a TGI in the assay with BT-549 breast of over 81.5 µM.
With `FC1=C2CCCCCC2SC1(F)F` (stereo unspecified), the TGI is over 100 µM in the assay with KM12 colon; over 100 µM in the assay on MCF7 breast; over 100 µM in the assay with SK-MEL-2 melanoma; over 100 µM in the assay on DU-145 prostate; 29.2 µM with NCI-H522 lung; over 100 µM with OVCAR-4 ovarian. The TGI in the assay with SF-268 CNS is over 100 µM; with SNB-19 CNS, over 100 µM; in the assay on HCT-116 colon, over 100 µM; with MALME-3M melanoma it was 52.4 µM; with HS 578T breast, over 100 µM; with SR leukemia it was 53.6 µM. The TGI in the assay on BT-549 breast was over 100 µM.
In the case of `CCOC(=O)c1c(N2CCCC2)[nH]c(=O)c(C(c2cccs2)c2c(O)c(C(=O)OCC)c(N3CCCC3)[nH]c2=O)c1O`, the TGI in the assay with KM12 colon, in the assay with MCF7 breast, in the assay on SK-MEL-2 melanoma, in the assay on DU-145 prostate, with SF-539 CNS and in the assay with NCI-H522 lung was over 100 µM each time. Further, the TGI in the assay on OVCAR-4 ovarian, in the assay on SF-268 CNS, in the assay on SNB-19 CNS, with HCT-116 colon, with MALME-3M melanoma and with HS 578T breast was over 100 µM in each case. The TGI in the assay with SR leukemia and in the assay with BT-549 breast was over 100 µM throughout.
As for `C/C(=N\Nc1nc2ccccc2s1)c1cc(C)ncn1`, the TGI in the assay on KM12 colon was 14.2 µM; with MCF7 breast it was over 19.4 µM; in the assay on SK-MEL-2 melanoma, 23 µM; in the assay on DU-145 prostate, 45.1 µM; in the assay on SF-539 CNS it was 35 µM; with NCI-H522 lung it was 5.04 µM. The TGI in the assay on OVCAR-4 ovarian was over 39.8 µM; in the assay with SF-268 CNS it was 3.16 µM; in the assay on SNB-19 CNS, 61.5 µM; in the assay on HCT-116 colon, over 27.2 µM; with MALME-3M melanoma, over 36.1 µM; in the assay with HS 578T breast, 12.7 µM. For the same compound, the TGI in the assay on SR leukemia is 9.82 µM; with BT-549 breast, over 46.3 µM.
As for `O=c1oc2ccc([N+](=O)[O-])cc2c(Nc2ccc3c(c2)S(=O)(=O)c2ccccc2O3)c1[N+](=O)[O-]`, the TGI with KM12 colon, in the assay on MCF7 breast, in the assay with SK-MEL-2 melanoma, in the assay with DU-145 prostate, in the assay on SF-539 CNS and with NCI-H522 lung was over 100 µM each time. For the same compound, the TGI with OVCAR-4 ovarian, in the assay with SF-268 CNS, with SNB-19 CNS, in the assay on HCT-116 colon, in the assay with MALME-3M melanoma and with HS 578T breast was over 100 µM in each case. Also, the TGI in the assay on SR leukemia and with BT-549 breast was over 100 µM each time.
With `COc1cc2c(cc1OC)C(=O)N(NC1=NCCN1)C2=O`, the TGI with KM12 colon, with MCF7 breast, in the assay with SK-MEL-2 melanoma, in the assay with DU-145 prostate, with SF-539 CNS and with NCI-H522 lung was over 100 µM throughout. In addition, the TGI with OVCAR-4 ovarian, in the assay on SF-268 CNS, with SNB-19 CNS, in the assay with HCT-116 colon, in the assay on MALME-3M melanoma and in the assay on HS 578T breast was over 100 µM throughout. The TGI with SR leukemia and with BT-549 breast was over 100 µM throughout.
For the compound `CC(=O)O[C@@H](C1C[C@@H](C)[C@H]2[C@@](O)(O1)[C@H](O)[C@@]1(C)C3=CC[C@H]4C(C)(C)[C@@H](OC5OCC(O)C(O)C5O)CC[C@@]45C[C@@]35CC[C@]21C)C(C)(C)O` (stereo partly specified), the TGI in the assay with KM12 colon was determined as 58.1 µM; with MCF7 breast, 50.3 µM; in the assay with SK-MEL-2 melanoma it was 36.9 µM; with DU-145 prostate, 70 µM; with SF-539 CNS, 30.3 µM; in the assay on NCI-H522 lung, 36.9 µM. In addition, the TGI in the assay with OVCAR-4 ovarian is over 100 µM; in the assay with SF-268 CNS, over 100 µM; with SNB-19 CNS, over 100 µM; in the assay on HCT-116 colon it was 41.5 µM; in the assay on MALME-3M melanoma, 51 µM; in the assay on HS 578T breast, over 100 µM. The TGI in the assay on SR leukemia came to 49.8 µM; with BT-549 breast, 80.8 µM.
